Columns and labels:
IRAK4 enzyme = IRAK4 enzyme (Homo sapiens (Human), UniProt Q9NWZ3); assay: biochemical; assay type: biochemical; details: IRAK4 enzyme, TR-FRET (HTRF), 500 μM ATP
TNFα = assay: cells; assay type: cell-based, human; details: Homo sapiens, Monocyte, LPS-stimulated human monocytes, TNFα content; read-out: EC50 TNF
Method: IRAK4 Monocyte TNFα Cell Based Assay Procedure:
The cell suspension was then plated at a density of 5,000 cells/well onto black 384 well Greiner clear bottom plates. Plates were pre-spotted with test compounds and serially diluted in DMSO where 200 nL/well were delivered using the Echo 550 acoustic liquid dispenser (Labcyte®) for a final DMSO concentration of 0.5%. Plated cells were treated with compound for 1 hour at 37° C. Cells were then stimulated with 50 pg/ml of LPS (Sigma) excluding outside columns of plate used for unstimulated cell control wells. Cells were incubated for an additional 4 hours at 37° C. Cells were then spun out of the media and 5 μl of sample were taken and analyzed for total TNFα content using the TR-FRET Human TNFα detection system (CisBio). This system utilizes two labeled antibodies (cryptate and XL665) that bind to two different epitopes of the TNFα molecule and produce FRET signal proportional to the concentration of TNFα in the sample. Detection antibodies are mixed 50:50 and 5 μL were dispensed into each well. Plates were covered with clear seals and incubated at room temp overnight. […] Percent of control was calculated as follows: % Control=100×(RatioSample−Ratio0% stimulation)/(Ratio100% Stimulation−Ratio0% Stimulation) where unstimulated cells (0% stimulation) were the negative control and stimulated cells (100% stimulation) were used as the positive control.

Chain of IRAK4 enzyme (Q9NWZ3 whole entry): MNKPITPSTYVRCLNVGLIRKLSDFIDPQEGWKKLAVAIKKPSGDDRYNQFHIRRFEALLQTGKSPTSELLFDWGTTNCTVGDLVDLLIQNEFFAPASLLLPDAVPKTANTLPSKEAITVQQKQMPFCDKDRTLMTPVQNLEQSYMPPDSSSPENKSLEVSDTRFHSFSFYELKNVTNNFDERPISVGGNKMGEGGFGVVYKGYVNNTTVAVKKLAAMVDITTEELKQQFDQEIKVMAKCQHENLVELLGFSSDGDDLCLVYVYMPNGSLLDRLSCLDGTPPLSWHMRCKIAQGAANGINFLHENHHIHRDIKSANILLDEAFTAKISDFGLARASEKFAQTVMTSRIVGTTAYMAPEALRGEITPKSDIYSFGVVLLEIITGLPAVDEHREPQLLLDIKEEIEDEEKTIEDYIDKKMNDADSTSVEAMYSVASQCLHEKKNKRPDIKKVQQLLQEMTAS

Row | SMILES | IC50 (IRAK4 enzyme) [nM] | EC50 (TNFα) [nM]
1 | CN(C)C(=O)OC12CCC(Nc3cc(-c4ccc5cc(C#N)cnn45)ncc3C(=O)NC[C@@H](F)C(C)(C)O)(CC1)CC2 [Example 411, (R)-4-((2-(3-cyano-pyrrolo[1,2-b]pyridazin-7-yl)-5-((2-fluoro-3-hydroxy-3-methylbutyl)carbamoyl)pyridin-4-yl)amino)bicyclo[2.2.2] octan-1-yl dimethylcarbamate] | 2 | 62
2 | CNC(=O)OC12CCC(Nc3cc(-c4ccc5cc(C#N)cnn45)ncc3C(=O)NC[C@@H](F)C(C)(C)O)(CC1)CC2 [Example 412, (R)-4-((2-(3-cyanopyrrolo[1,2-b]pyridazin-7-yl)-5-((2-fluoro-3-hydroxy-3-methylbutyl)carbamoyl)pyridin-4-yl)amino)bicyclo[2.2.2]octan-1-yl methylcarbamate] | 1 | 44
3 | CC(C)(O)[C@H](F)CNC(=O)c1cnc(-c2ccc3cc(C#N)cnn23)cc1Nc1ccc(C#N)cn1 [Example 413, (R)-4-((5-cyanopyridin-2-yl)amino)-6-(3-cyano-pyrrolo[1,2-b]pyridazin-7-yl)-N-(2-fluoro-3-hydroxy-3-methylbutyl) nicotinamide] | < 1 | 98
4 | COC12CCC(Nc3cc(-c4ccc5cc(C#N)cnn45)ncc3C(=O)NC[C@@H](F)C(C)(C)O)(CC1)CC2 [Example 414, 6-(3-cyanopyrrolo[1,2-b]pyridazin-7-yl)-N-((R)-2-fluoro-3-hydroxy-3-methylbutyl)-4-((4-methoxybicyclo[2.2.2]octan-1-yl)amino)nicotinamide] | 12 | 178
5 | CN(C)C(=O)C12CCC(Nc3cc(-c4ccc5cc(C#N)cnn45)ncc3C(=O)NC[C@@H](F)C(C)(C)O)(CC1)CC2 [Example 415, (R)-6-(3-cyanopyrrolo[1,2-b]pyridazin-7-yl)-4-((4-(dimethylcarbamoyl)bicyclo[2.2.2]octan-1-yl)amino)-N-(2-fluoro-3-hydroxy-3-methyl-butyl)nicotinamide] | 1 | 14
6 | CNC(=O)C12CCC(Nc3cc(-c4ccc5cc(C#N)cnn45)ncc3C(=O)NC[C@@H](F)C(C)(C)O)(CC1)CC2 [Example 416, 6-(3-cyanopyrrolo[1,2-b]pyridazin-7-yl)-N-((R)-2-fluoro-3-hydroxy-3-methylbutyl)-4-((4-(methylcarbamoyl)bicyclo[2.2.2]octan-1-yl)amino)nicotinamide] | 1 | 16
7 | CC(=O)OC12CCC(Nc3cc(-c4ccc5cc(C#N)cnn45)ncc3C(=O)NC[C@@H](F)C(C)(C)OC(C)=O)(CC1)CC2 [Example 417, 4-((5-(((R)-3-acetoxy-2-fluoro-3-methylbutyl)carbamoyl)-2-(3-cyanopyrrolo[1,2-b]pyridazin-7-yl)pyridin-4-yl)amino)bicyclo[2.2.2]octan-1-yl acetate] | 5 | 151
8 | CC(=O)OC12CCC(Nc3cc(-c4ccc5cc(C#N)cnn45)ncc3C(=O)NC[C@@H](F)C(C)(C)O)(CC1)CC2 [Example 418, 4-((2-(3-cyanopyrrolo[1,2-b]pyridazin-7-yl)-5-(((R)-2-fluoro-3-hydroxy-3-methylbutyl)carbamoyl)pyridin-4-yl)amino)bicyclo[2.2.2]octan-1-yl acetate] | 1 | 36
9 | CC(C)(O)[C@H](F)CNC(=O)c1cnc(-c2ccc3cc(C#N)cnn23)cc1NC1C2CC3CC1CC(O)(C3)C2 (stereo partly drawn) [Example 419, 6-(3-cyanopyrrolo[1,2-b]pyridazin-7-yl)-N-((R)-2-fluoro-3-hydroxy-3-methylbutyl)-4-((5-hydroxyadamantan-2-yl)amino)nicotinamide] | 3 | 127
10 | CC(C)(O)[C@H](F)CNC(=O)c1cnc(-c2ccc3cc(C#N)cnn23)cc1Nc1ncc(C#N)cn1 [Example 420, (R)-4-((5-cyanopyrimidin-2-yl)amino)-6-(3-cyano-pyrrolo[1,2-b]pyridazin-7-yl)-N-(2-fluoro-3-hydroxy-3-methylbutyl)nicotinamide] | 6 | 122
11 | CC(C)(O)[C@H](F)CNC(=O)c1cnc(-c2ccc3cc(C#N)cnn23)cc1NC12CCC(CC1)CC2 [Example 421, (R)-4-(bicyclo[2.2.2]octan-1-ylamino)-6-(3-cyano-pyrrolo[1,2-b]pyridazin-7-yl)-N-(2-fluoro-3-hydroxy-3-methylbutyl)nicotinamide] | 2 | 24
12 | CC(C)(O)[C@H](F)CNC(=O)c1cnc(-c2ccc3cc(C#N)cnn23)cc1N[C@H]1CC[C@H](NC(=O)C2(F)CC2)CC1 [Example 422, 6-(3-cyanopyrrolo[1,2-b]pyridazin-7-yl)-N-((R)-2-fluoro-3-hydroxy-3-methylbutyl)-4-(((1r,4R)-4-(1-fluorocyclopropane-1-carboxamido)cyclohexyl)amino)nicotinamide] | 2 | 76
13 | CC1(C(=O)N[C@H]2CC[C@H](Nc3cc(-c4ccc5cc(C#N)cnn45)ncc3C(=O)NC[C@@H](F)C(C)(C)O)CC2)CC1 [Example 423, 6-(3-cyanopyrrolo[1,2-b]pyridazin-7-yl)-N-((R)-2-fluoro-3-hydroxy-3-methyl-butyl)-4-(((1r,4R)-4-(1-methylcyclopropane-1-carboxamido)cyclohexyl)amino)nicotinamide] | 2 | 94
14 | C=CC(=O)NC12CCC(Nc3cc(-c4ccc5cc(C#N)cnn45)ncc3C(=O)NC[C@@H](F)C(C)(C)O)(CC1)CC2 [Example 424, (R)-4-((4-acrylamidobicyclo[2.2.2]octan-1-yl)amino)-6-(3-cyanopyrrolo[1,2-b]pyridazin-7-yl)-N-(2-fluoro-3-hydroxy-3-methyl-butyl)nicotinamide] | 1 | 18
15 | C=CC(=O)N[C@H]1CC[C@H](Nc2cc(-c3ccc4cc(C#N)cnn34)ncc2C(=O)NC[C@@H](F)C(C)(C)O)CC1 [Example 425, 4-(((1r,4R)-4-acrylamidocyclohexyl)amino)-6-(3-cyano-pyrrolo[1,2-b]pyridazin-7-yl)-N-((R)-2-fluoro-3-hydroxy-3-methylbutyl) nicotinamide] | 2 | 120
16 | N#Cc1cnn2c(-c3cc(N[C@H]4CCC[C@@H](O)C4)c(C(=O)NC4C[C@H]4F)cn3)ccc2c1 (stereo partly drawn) [Example 426, 6-(3-cyanopyrrolo[1,2-b]pyridazin-7-yl)-N-((2R)-2-fluorocyclopropyl)-4-(((1S,3R)-3-hydroxycyclo-hexyl)amino)nicotinamide] | 5 | 591
17 | N#Cc1cnn2c(-c3cc(N[C@H]4CCC[C@@H](O)C4)c(C(=O)NC4CC5(C4)CC(F)(F)C5)cn3)ccc2c1 [Example 427, 6-(3-cyanopyrrolo[1,2-b]pyridazin-7-yl)-N-(6,6-difluorospiro[3.3]heptan-2-yl)-4-(((1S,3R)-3-hydroxycyclohexyl)amino) nicotinamide] | 2 | 278
18 | N#Cc1cnn2c(-c3cc(N[C@H]4CCC[C@@H](O)C4)c(C(=O)NCC4(C#N)CC4)cn3)ccc2c1 [Example 428, N-((1-cyanocyclopropyl)methyl)-6-(3-cyano-pyrrolo[1,2-b]pyridazin-7-yl)-4-(((1S,3R)-3-hydroxycyclohexyl)amino)nicotinamide] | 63 | 4270
